# Values of other authors as cited in patent US20250082671A1, “ANIMAL FEED ADDITIVE COMPOSITION, PRE-MIX FEED COMPOSITION AND MANUFACTURING METHOD FOR SUB CLINICAL HYPCALCEMIA RELIEF, ENERGY IMPROVEMENT AND INCREASED MILK PRODUCTION” (Chemlock Metals Corp., priority 2023, published 2025).
# System: cows
# Conditions: multiparous cows compared to un-supplemented ones
substance,measurement,value
chromium propionate complex,dry matter intake (DMI),on average higher
